Results reported in ChEMBL document CHEMBL1121576, “Congeners of the alpha conformer of dopamine derived from octahydrobenz[h]isoquinoline” (1980).

Legend:
Format in all cases: functional
Felis catus [1] = species: Felis catus; experiment: Tested for inhibitory activity against postganglionic cardioaccelerator nerve relative to apomorphine
Felis catus [2] = experiment: Percent reduction in blood pressure after iv administration of 1 umol/kg of compound in anesthetized cat
Felis catus [3] = species: Felis catus; experiment: Tested for inhibition of postganglionic cardioaccelerator nerve in the cat; conditions: for ED50: Felis catus, read-out: ID50 (the source's name)
Felis catus [4] = experiment: Percent reduction in heart rate after iv administration of 1 umol/kg of compound in anesthetized cats.

Q: What does the source list for Br.CCN1CC[C@H]2CCc3cc(O)c(O)cc3[C@H]2C1?
A: Relative activity (Felis catus [1]): 0.025; Reduction (Felis catus [2]): 18.5%; ED50 (Felis catus [3]): 0.81 µmol/kg; Reduction (Felis catus [4]): 4.3 beats min-1

Q: Which Relative activity (Felis catus [1]) does the source give for Br.CCCN1CC[C@H]2CCc3cc(O)c(O)cc3[C@@H]2C1 (relative stereo) here?
A: Its Relative activity is 0.026.

Q: And the Reduction (Felis catus [2])?
A: Its Reduction is 13.3%.

Q: And the ED50 (Felis catus [3])?
A: The ED50 was 0.8 µmol/kg.

Q: And the Reduction (Felis catus [4])?
A: The Reduction was 3 beats min-1.

Q: With Br.CCCN1CC[C@H]2CCc3cc(O)c(O)cc3[C@H]2C1 (relative stereo) as the molecule, how does the Relative activity (Felis catus [1]) read?
A: Its Relative activity is 0.02.

Q: What about the Reduction (Felis catus [2]) of the same molecule?
A: The Reduction was 31.7%.

Q: What about the ED50 (Felis catus [3]) of the same molecule?
A: The ED50 was 0.9 µmol/kg.

Q: What about the Reduction (Felis catus [4]) of the same molecule?
A: The Reduction was 22.6 beats min-1.

Q: Br.Oc1cc2c(cc1O)C1CNCCC1CC2 (stereo in doubt; 21) was tested. Which Relative activity (Felis catus [1]) did it give?
A: Its Relative activity is 0.073.

Q: And the Reduction (Felis catus [2])?
A: The Reduction was 27.9%.

Q: And the ID50 (Felis catus [3])?
A: The ID50 was 0.31 µM/kg.

Q: What about the Reduction (Felis catus [4]) of the same molecule?
A: Its Reduction is 13.6 beats min-1.

Q: Which results are given for Br.CN1CCC2CCc3cc(O)c(O)cc3C2C1 (trans isomer)?
A: Relative activity (Felis catus [1]): 0.038; Reduction (Felis catus [2]): 14.6%; ED50 (Felis catus [3]): 0.52 µmol/kg; Reduction (Felis catus [4]): 3.2 beats min-1

Q: Which results are given for Br.Oc1cc2c(cc1O)C1CNCCC1CC2 (trans isomer)?
A: Relative activity (Felis catus [1]): 0.27; Reduction (Felis catus [2]): 21.9%; ID50 (Felis catus [3]): 0.8 µM/kg; Reduction (Felis catus [4]): 49 beats min-1

Q: CN1CCc2cccc3c2[C@H]1Cc1ccc(O)c(O)c1-3 [APOMORPHINE] was tested. Which Relative activity (Felis catus [1]) did it give?
A: Its Relative activity is 1.

Q: What about the ED50 (Felis catus [3]) of the same molecule?
A: The ED50 was 0.024 µmol/kg.
